Test results taken from ChEMBL document CHEMBL3994587, “An insight on synthetic and medicinal aspects of pyrazolo[1,5-a]pyrimidine scaffold” (Eur J Med Chem, 2017).
Values after ≈ are worked out from the molar mass of the structure shown.

How the values were obtained:
Translocator protein [1] = target: T1, Translocator protein (Rattus norvegicus, UniProt P16257); assay: Displacement of [3H]PK11195 from PBZR in rat kidney mitochondrial membranes measured after 90 mins by liquid scintillation counting; assay type: cell membranes
T1 sequence (P16257 whole entry, looked up): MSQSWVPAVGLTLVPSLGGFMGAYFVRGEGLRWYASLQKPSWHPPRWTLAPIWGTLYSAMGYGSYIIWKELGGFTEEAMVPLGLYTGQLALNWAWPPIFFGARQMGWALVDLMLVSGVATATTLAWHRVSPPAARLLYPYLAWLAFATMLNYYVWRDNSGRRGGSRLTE

Translocator protein [2] = target: T1, Translocator protein; assay: Displacement of [3H]Ro5-4864 from PBZR in rat kidney mitochondrial membranes measured after 90 mins by liquid scintillation counting; assay type: cell membranes
Staphylococcus aureus [3] = assay: Antibacterial activity against Staphylococcus aureus measured after 18 hrs by agar dilution method; assay type: functional
Bacillus subtilis [4] = assay: Antibacterial activity against Bacillus subtilis measured after 18 hrs by agar dilution method; assay type: functional
Escherichia coli [5] = assay: Antibacterial activity against Escherichia coli measured after 18 hrs by agar dilution method; assay type: functional
Pseudomonas aeruginosa [6] = assay: Antibacterial activity against Pseudomonas aeruginosa measured after 18 hrs by agar dilution method; assay type: functional
Candida albicans [7] = assay: Antifungal activity against Candida albicans measured after 18 hrs by agar dilution method; assay type: functional
Staphylococcus aureus [8] = assay: Antibacterial activity against Staphylococcus aureus RCMB 000108 assessed as zone of inhibition at 30 ug/ml; assay type: functional; conditions: read-out: IZ
Bacillus subtilis [9] = assay: Antibacterial activity against Bacillus subtilis RCMB 000109 assessed as zone of inhibition at 30 ug/ml; assay type: functional; conditions: read-out: IZ
Pseudomonas aeruginosa [10] = assay: Antibacterial activity against Pseudomonas aeruginosa RCMB 000103 assessed as zone of inhibition at 30 ug/ml; assay type: functional; conditions: read-out: IZ
Escherichia coli [11] = assay: Antibacterial activity against Escherichia coli RCMB 000106 assessed as zone of inhibition at 30 ug/ml; assay type: functional; conditions: read-out: IZ
Salmonella typhi = assay: Antibacterial activity against Salmonella typhi MTCC 98 assessed as zone of inhibition at 25 to 150 ug/ml measured after 24 hrs by agar well diffusion method; assay type: functional, Salmonella enterica subsp. enterica serovar Typhi
Escherichia coli [12] = assay: Antibacterial activity against Escherichia coli MTCC 443 assessed as zone of inhibition at 25 to 150 ug/ml measured after 24 hrs by agar well diffusion method; assay type: functional
Bacillus subtilis [13] = assay: Antibacterial activity against Bacillus subtilis MTCC 441 assessed as zone of inhibition at 25 to 150 ug/ml measured after 24 hrs by agar well diffusion method; assay type: functional
Staphylococcus aureus [14] = assay: Antibacterial activity against Staphylococcus aureus MTCC 96 assessed as zone of inhibition at 25 to 150 ug/ml measured after 24 hrs by agar well diffusion method; assay type: functional
Aspergillus niger = assay: Antifungal activity against Aspergillus niger assessed as zone of inhibition at 25 to 150 ug/ml measured after 24 to 48 hrs by agar well diffusion method; assay type: functional
Candida albicans [15] = assay: Antifungal activity against Candida albicans MTCC 227 assessed as zone of inhibition at 25 to 150 ug/ml measured after 24 to 48 hrs by agar well diffusion method; assay type: functional
Penicillium chrysogenum = assay: Antifungal activity against Penicillium chrysogenum MTCC 160 assessed as zone of inhibition at 25 to 150 ug/ml measured after 24 to 48 hrs by agar well diffusion method; assay type: functional
Aspergillus fumigatus = assay: Antifungal activity against Aspergillus fumigatus RCMB 002006 assessed as zone of inhibition at 30 ug/ml; assay type: functional; conditions: read-out: IZ
Geotrichum candidum = assay: Antifungal activity against Geotrichum candidum 052008 assessed as zone of inhibition at 30 ug/ml; assay type: functional; conditions: read-out: IZ
[16] = test system: Syncephalastrum racemosum; assay: Antifungal activity against Syncephalastrum racemosum 005004 assessed as zone of inhibition at 30 ug/ml; assay type: functional; conditions: read-out: IZ
Candida albicans [17] = assay: Antifungal activity against Candida albicans RCMB 0005003 assessed as zone of inhibition at 30 ug/ml; assay type: functional; conditions: read-out: IZ
Staphylococcus aureus [18] = assay: Antibacterial activity against Staphylococcus aureus NCTC 7447 assessed as zone of inhibition at 1 mg/ml measured after 24 hrs by agar diffusion method; assay type: functional; conditions: NCTC 7447, 24 h, read-out: IZ
Bacillus subtilis [19] = assay: Antibacterial activity against Bacillus subtilis NCTC 10400 assessed as zone of inhibition at 1 mg/ml measured after 24 hrs by agar diffusion method; assay type: functional; conditions: NCTC 10400, 24 h, read-out: IZ
Sarcina = assay: Antibacterial activity against Sarcina sp. NCTC 1117 assessed as zone of inhibition at 1 mg/ml measured after 24 hrs by agar diffusion method; assay type: functional; conditions: NCTC 1117, 24 h, read-out: IZ
Escherichia coli [20] = assay: Antibacterial activity against Escherichia coli NCTC 10416 assessed as zone of inhibition at 1 mg/ml measured after 24 hrs by agar diffusion method; assay type: functional; conditions: NCTC 10416, 24 h, read-out: IZ
Serratia marcescens = assay: Antibacterial activity against Serratia marcescens IMRU 70 assessed as zone of inhibition at 1 mg/ml measured after 24 hrs by agar diffusion method; assay type: functional; conditions: IMRU 70, 24 h, read-out: IZ
[21] = test system: Trichophyton mentagrophytes; assay: Anti-fungal activity against Trichophyton mentagrophytes measured after 48 hrs by broth dilution method; assay type: functional

## CCC(CC)C(=O)Cc1c(-c2ccc(C)cc2)nn2c(C)cc(C)nc12
Translocator protein [1]
  Ki: 0.8 nM
Translocator protein [2]
  Ki: 1.7 nM

## Cc1nc(-c2ccccc2)sc1-c1ccn2nc(C#N)cc2n1
Staphylococcus aureus [3]
  MIC: ≥ 800 µg/mL
Bacillus subtilis [4]
  MIC: ≥ 800 µg/mL
Escherichia coli [5]
  MIC: ≥ 800 µg/mL
Pseudomonas aeruginosa [6]
  MIC: ≥ 800 µg/mL
Candida albicans [7]
  MIC: ≥ 400 µg/mL

## CN[C@@H]1[C@H](O[C@H]2[C@H](O[C@H]3[C@H](O)[C@@H](O)[C@H](N=C(N)N)[C@@H](O)[C@@H]3N=C(N)N)O[C@@H](C)[C@]2(O)C=O)O[C@@H](CO)[C@H](O)[C@H]1O [STREPTOMYCIN]
Staphylococcus aureus [8]
  zone of inhibition at 30 µg/mL: 28.1 mm
Bacillus subtilis [9]
  zone of inhibition at 30 µg/mL: 29.7 mm
Pseudomonas aeruginosa [10]
  zone of inhibition at 30 µg/mL: 25.2 mm
Escherichia coli [11]
  zone of inhibition at 30 µg/mL: 29.7 mm

## CCC(CC)C(=O)Cc1c(-c2ccc(Cl)cc2)nn2c(C)cc(C)nc12
Translocator protein [1]
  Ki: 2.4 nM
Translocator protein [2]
  Ki: 1.4 nM

## CCC(CC)C(=O)Cc1c(-c2ccc(OC)cc2)nn2c(C)cc(C)nc12
Translocator protein [1]
  Ki: 4.7 nM
Translocator protein [2]
  Ki: 3.1 nM

## OC(Cn1cncn1)(Cn1cncn1)c1ccc(F)cc1F [FLUCONAZOLE]
Staphylococcus aureus [3]
  MIC: ≥ 800 µg/mL
Bacillus subtilis [4]
  MIC: ≥ 800 µg/mL
Escherichia coli [5]
  MIC: ≥ 800 µg/mL
Pseudomonas aeruginosa [6]
  MIC: ≥ 800 µg/mL
Candida albicans [7]
  MIC: ≤ 25 µg/mL

## Cc1nn(-c2ccccc2)c(Cl)c1-c1cc(-c2cc(Cl)ccc2O)nc2c(/N=N/c3ccc(Cl)cc3)c(N)nn12
Salmonella typhi
  inhibition zone (IZ): 15 mm
Escherichia coli [12]
  inhibition zone (IZ): 18 mm
Bacillus subtilis [13]
  inhibition zone (IZ): 12 mm
Staphylococcus aureus [14]
  inhibition zone (IZ): 15 mm
Aspergillus niger
  inhibition zone (IZ): 20 mm
Candida albicans [15]
  inhibition zone (IZ): 11 mm
Penicillium chrysogenum
  inhibition zone (IZ): 13 mm

## Nc1nn2c(-c3cccs3)cc(-c3cccs3)nc2c1/N=N/c1ccccc1
Staphylococcus aureus [8]
  zone of inhibition at 30 µg/mL: 15.3 mm
Bacillus subtilis [9]
  zone of inhibition at 30 µg/mL: 17.9 mm
Pseudomonas aeruginosa [10]
  zone of inhibition at 30 µg/mL: 9.3 mm
Escherichia coli [11]
  zone of inhibition at 30 µg/mL: 14.9 mm
Aspergillus fumigatus
  zone of inhibition at 30 µg/mL: 15.2 mm
Geotrichum candidum
  zone of inhibition at 30 µg/mL: 11.3 mm
[16]
  zone of inhibition at 30 µg/mL: 8.2 mm
Candida albicans [17]
  zone of inhibition at 30 µg/mL: 10 mm

## Cc1nc(-c2ccccc2)sc1-c1ccn2ncc(-c3ccccc3)c2n1
Staphylococcus aureus [3]
  MIC: ≥ 800 µg/mL
Bacillus subtilis [4]
  MIC: ≥ 400 µg/mL
Escherichia coli [5]
  MIC: ≥ 800 µg/mL
Pseudomonas aeruginosa [6]
  MIC: ≥ 400 µg/mL
Candida albicans [7]
  MIC: ≥ 400 µg/mL

## CC1(C)S[C@@H]2[C@H](NC(=O)Cc3ccccc3)C(=O)N2[C@H]1C(=O)O [PENICILLIN G]
Staphylococcus aureus [8]
  zone of inhibition at 30 µg/mL: 30.1 mm
Bacillus subtilis [9]
  zone of inhibition at 30 µg/mL: 31.6 mm
Pseudomonas aeruginosa [10]
  zone of inhibition at 30 µg/mL: 28.3 mm
Escherichia coli [11]
  zone of inhibition at 30 µg/mL: 33.1 mm

## COc1ccccc1NS(=O)(=O)c1ccc(/N=N/c2c(=O)[nH]n3cc(C#N)c(N)nc23)cc1
Staphylococcus aureus [18]
  zone of inhibition at 1000 µg/mL: 9 to 11 mm
Bacillus subtilis [19]
  zone of inhibition at 1000 µg/mL: 15 to 18 mm
Sarcina
  zone of inhibition at 1000 µg/mL: 12 to 14 mm
Escherichia coli [20]
  zone of inhibition at 1000 µg/mL: 12 to 14 mm
Serratia marcescens
  zone of inhibition at 1000 µg/mL: 12 to 14 mm

## CCCCCCCCNc1cc(C)nc2ccnn12
[21]
  MLC: 160 µM (≈ 41.7 µg/mL)
[21]; Trichophyton mentagrophytes, 48 h
  MIC: 20 µM (≈ 5.21 µg/mL)

## Cc1nc(-c2ccccc2)sc1-c1ccn2nc(C)c(-c3ccccc3)c2n1
Staphylococcus aureus [3]
  MIC: ≥ 800 µg/mL
Bacillus subtilis [4]
  MIC: ≥ 400 µg/mL
Escherichia coli [5]
  MIC: ≥ 400 µg/mL
Pseudomonas aeruginosa [6]
  MIC: ≥ 800 µg/mL
Candida albicans [7]
  MIC: ≥ 400 µg/mL

## COc1ccc(NS(=O)(=O)c2ccc(/N=N/c3c(=O)[nH]n4c(-c5ncccn5)c(C#N)c(N)nc34)cc2)cc1
Staphylococcus aureus [18]
  zone of inhibition at 1000 µg/mL: 12 to 14 mm
Bacillus subtilis [19]
  zone of inhibition at 1000 µg/mL: 9 to 11 mm
Sarcina
  zone of inhibition at 1000 µg/mL: 15 to 18 mm
Escherichia coli [20]
  zone of inhibition at 1000 µg/mL: 15 to 18 mm
Serratia marcescens
  zone of inhibition at 1000 µg/mL: 15 to 18 mm

## O=C(O)c1cn(C2CC2)c2cc(N3CCNCC3)c(F)cc2c1=O [CIPROFLOXACIN]
Staphylococcus aureus [3]
  MIC: ≤ 25 µg/mL
Bacillus subtilis [4]
  MIC: ≤ 25 µg/mL
Escherichia coli [5]
  MIC: ≤ 25 µg/mL
Pseudomonas aeruginosa [6]
  MIC: 400 µg/mL (≈ 1210 µM)
Candida albicans [7]
  MIC: ≥ 800 µg/mL
